Patent publication US8691799B2, “Materials and methods for treatment of cancer and identification of anti-cancer compounds” (priority 2001, dated 2014)
“Also recorded” adds a separate entry of the source.

Legend:
A549 tumors = experiment: Antitumor activity, A549 xenograft in nude mice; type: in vivo
From the text: Antitumor Activity in the Nude Mouse Tumor Xenograft Model. Nude mice and C57 BL-6 black mice (National Cancer Institute, Bethesda, Md.) were maintained in accordance with the Institutional Animal Care and Use Committee (IACUC) procedures and guidelines. v-Src- and oncogenic H-Ras-transformed NIH 3T3, A549, MDA-MB-468 and Calu-1 cells were harvested, resuspended in PBS and injected s.c. into the right and left flank (10×10^6 cells per flank) of 8 week old female nude mice as reported previously (Sun, J. et al. Cancer Res., 1999, 59:4919-4926). Similarly, murine B16-F10 Melanoma cells were injected s.c. into the right and left flank (10^6 cells per flank) of C57 black mice. When tumors reached about 150 mm^3, animals were randomized (five animals per group; two tumors per animal) and dosed i.p. with 0.2 ml once daily. […] The tumor volumes were determined by measuring the length (l) and the width (w) and calculating the volume (V=1w^2/2) as described previously (Sun, J. et al. Cancer Res., 1999, 59:4919-4926). Statistical significance between control and treated animals were evaluated by using Student's t-test. For the mouse survival experiments, C57 BL-6 black mice were implanted s.c. with B16-F10 cells (10^5 to 10^6 cells per flank). […] Percent surviving mice was determined by monitoring the death of mice until all mice died. […]

phospho-JNK = experiment: Western blotting for phospho-JNK; type: cell-based, human; details: A549 and MDA-MB-468 cells, up to 10 μM
Procedure: (§1) Western Blotting. Treated cell samples were lysed in 30 mM Hepes, pH 7.5, 10 mM NaCl, 5 mM MgCl2, 25 mM NaF, 1 mM EGTA, 1% Triton-X-100, 10% glycerol, 2 mM sodium orthovanadate, 10 μg/ml aprotinin, 10 μg/ml soybean trypsin inhibitor, 25 μg/ml leupeptin, 2 mM PMSF, and 6.4 mg/ml p-nitrophenylphosphate. Phospho-STAT3, phospho-AKT, phospho-MEK, and phospho-p42/p44 MAPK antibodies were obtained from Cell Signaling Technologies, Cambridge, Mass. Antibodies to STAT3, JAK2, and phospho-INK were purchased from Santa Cruz Biotechnology, Santa Cruz, Calif. Phospho-JAK2 antibody came from Upstate Biotechnology, Lake Placid, N.Y. Membranes were blocked in either 5% milk in PBS, pH 7.4, containing 0.1% Tween-20 (PBS-T) or 1% BSA in TBS, pH 7.5, containing 0.1% Tween-20 (TBS-T). Phospho-specific antibodies (excepting P-MAPK and P-JNK) were incubated in 1% BSA in TBS-T while all other antibodies were diluted in 5% milk in PBS-T for either 2 hr at room temperature or overnight at 4° C. HRP-conjugated secondary antibodies (Jackson ImmunoResearch) were diluted in 5% milk in either PBS-T or TBS-T at 1:1000 dilution for one hour at room temperature. Western blots were visualized using enhanced chemiluminescence as described previously (Blaskovich, M. A. et al. Nat. Biotechnol., 2000, 18:1065-1070).

Ras/NIH 3T3 tumors = experiment: Antitumor activity, oncogenic Ras-transformed NIH 3T3 tumors in nude mice; type: in vivo; details: 1 mg/kg/day i.p.
From the text: Antitumor Activity in the Nude Mouse Tumor Xenograft Model. Nude mice and C57 BL-6 black mice (National Cancer Institute, Bethesda, Md.) were maintained in accordance with the Institutional Animal Care and Use Committee (IACUC) procedures and guidelines. v-Src- and oncogenic H-Ras-transformed NIH 3T3, A549, MDA-MB-468 and Calu-1 cells were harvested, resuspended in PBS and injected s.c. into the right and left flank (10×10^6 cells per flank) of 8 week old female nude mice as reported previously (Sun, J. et al. Cancer Res., 1999, 59:4919-4926). Similarly, murine B16-F10 Melanoma cells were injected s.c. into the right and left flank (10^6 cells per flank) of C57 black mice. When tumors reached about 150 mm^3, animals were randomized (five animals per group; two tumors per animal) and dosed i.p. with 0.2 ml once daily. Control animals received DMSO (20%) vehicle whereas treated animals were injected with JSI-124 (1 mg/kg/day) in 20% DMSO in water. The tumor volumes were determined by measuring the length (l) and the width (w) and calculating the volume (V=1w^2/2) as described previously (Sun, J. et al. Cancer Res., 1999, 59:4919-4926). Statistical significance between control and treated animals were evaluated by using Student's t-test. […] Percent surviving mice was determined by monitoring the death of mice until all mice died. […]

phospho-Erk1/2 = experiment: Western blotting for phospho-Erk1/2; type: cell-based, human; details: A549 and MDA-MB-468 cells, up to 10 μM
Procedure: as §1

JAK2 = experiment: Western blotting for JAK2 protein levels; type: cell-based, human; details: A549 and MDA-MB-468 cells
Procedure: as §1

**Q.** For `CC(C)(O)/C=C/C(=O)[C@](C)(O)[C@H]1[C@H](O)C[C@@]2(C)[C@@H]3CC=C4[C@@H](C=C(O)C(=O)C4(C)C)[C@]3(C)C(=O)C[C@]12C` [JSI-124, cucurbitacin I], which “inhibition of A549 tumor growth, reduced dose” value (A549 tumors; 0.5 mg/kg/day for 23 days, nude mice (data not shown)) is on record?
**A.** Its value is 52%.

**Q.** What about the “inhibition of A549 tumor growth” value (A549 tumors; 1 mg/kg/day i.p., nude mice) of the same compound?
**A.** The value was 76%.

**Q.** What about the phospho-JNK levels (phospho-JNK) of the same compound?
**A.** Its phospho-JNK levels is “no inhibitory effect”.

**Q.** And the “growth of Ras/NIH 3T3 tumors” value (Ras/NIH 3T3 tumors)?
**A.** Its value is “resistant”.

**Q.** What about the phospho-Erk1/2 levels (phospho-Erk1/2) of the same compound?
**A.** Its phospho-Erk1/2 levels is “no inhibitory effect; also recorded: increased the levels of phosphorylation”.

**Q.** And the JAK2 protein levels (JAK2)?
**A.** The JAK2 protein levels was “no effect on the protein levels of STAT3 and JAK2”.
